Reference: PubChem BioAssay AID463203 (Broad Institute, 2010)
Activity calls are given as the source filed them.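 Rule for the calls: active = more than half of replicate measurements showing over 20% loss of kinase signal relative to plate controls; inconclusive = some but at most half of replicates over 20% loss; inactive = no replicate over 20% signal loss.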

molecular target: Glycogen synthase kinase-3 alpha (Homo sapiens) (UniProt P49840); experiment: concentration-response blocking of human GSK3A – biochemical, luminescence, cell-free homogeneous, retest, dose response (AID 463203); settings: GSK-3 alpha enzyme, ADP-Glo luminescence, 60 min
Sequence (P49840 whole entry, looked up): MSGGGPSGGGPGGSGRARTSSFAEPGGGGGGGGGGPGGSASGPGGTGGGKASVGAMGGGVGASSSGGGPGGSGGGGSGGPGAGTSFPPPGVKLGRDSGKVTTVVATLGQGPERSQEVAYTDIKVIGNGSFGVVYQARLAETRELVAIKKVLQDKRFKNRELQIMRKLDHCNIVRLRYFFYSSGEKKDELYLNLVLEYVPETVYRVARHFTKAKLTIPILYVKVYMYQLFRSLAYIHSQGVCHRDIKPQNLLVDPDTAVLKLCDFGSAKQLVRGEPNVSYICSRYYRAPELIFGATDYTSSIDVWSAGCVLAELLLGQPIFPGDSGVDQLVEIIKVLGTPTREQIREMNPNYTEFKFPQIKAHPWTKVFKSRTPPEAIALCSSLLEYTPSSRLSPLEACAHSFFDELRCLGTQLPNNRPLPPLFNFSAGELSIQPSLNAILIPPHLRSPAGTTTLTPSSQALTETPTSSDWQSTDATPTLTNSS

| Structure (SMILES) | AC50 |
| --- | --- |
| C=CCN1C(=O)/C(=C\c2cccs2)C(C(=O)OC)=C1C | > 30 µM (inactive) |
| CCCc1c(C(=O)N/N=C/C(C)=C/c2ccco2)nnn1-c1nonc1N | > 30 µM (inactive) |
| CCOCCCN(C(=O)c1snc(C(N)=O)c1N)C(C(=O)NC1CCCC1)c1ccc(O)cc1 (configuration not stated) | 27 µM |
| CCN(C(=O)CN1CCCCC1)c1c(N)n(Cc2ccccc2)c(=O)[nH]c1=O | > 30 µM (inactive) |
| COc1cccc(-c2nc(-c3ccccc3)[nH]c(=O)c2C#N)c1 | > 30 µM (inactive) |
| NC(=O)c1cn(-c2ccccc2)nc1-c1cccnc1 | > 30 µM (inactive) |
| COc1ccc(C(=O)c2sc(Nc3ccccc3)c(C(=O)Nc3ccc(OC)c(OC)c3)c2N)cc1 | > 30 µM (inactive) |
| CCN1CCN(c2c(Cl)cccc2NC(=O)c2ccc(Br)o2)CC1 | 2.59 µM |
| O=C1/C(=C/c2ccc(O)c(O)c2)Oc2cc(O)ccc21 | 10.5 µM |
| CCCCSc1nc(C)[nH]c1[N+](=O)[O-] | > 30 µM (inactive) |
| NS(=O)(=O)c1ccc(N=Nc2ccc(=O)[nH]c2O)cc1 | 6.56 µM |
| CC(=O)O[C@@H]1[C@@H](O)[C@@H](O)[C@H](Oc2c(-c3ccc(O)cc3)oc3c(CC=C(C)C)c(O)cc(O)c3c2=O)O[C@H]1C | 14.4 µM |
| CCCCOC(=O)CNc1n[nH]c(=S)[nH]c1=O | > 30 µM (inactive) |
| O=c1[nH]c2c(s1)C(c1ccccc1)C1C3CCC(C3)C1S2 (configuration not stated) | 1.98 µM |
| CC1CCN(Cc2c(C(=O)N/N=C/c3ccc(C(F)(F)F)cc3)nnn2-c2nonc2N)CC1 | > 30 µM (inactive) |
| Cc1onc(-c2ccccc2)c1C(=O)NCCN1CCOCC1 | > 30 µM (inactive) |
| COC(=O)C1=C(C)NC(=O)NC1c1ccc2c(c1)OCO2 (configuration not stated) | > 30 µM (inactive) |
| COC(=O)c1cn(C(=O)c2ccccc2F)nc1N | > 30 µM (inactive) |
| CC(=O)c1cnc(Nc2ccccc2)s1 | 20.2 µM |
| O=c1cc(-c2ccncc2)oc2c1ccc1ccccc12 | 0.312 µM |
| COc1cc(/C=c2\s/c(=C\C(=O)C(C)(C)C)[nH]c2=O)cc(OC)c1OC | > 30 µM (inactive) |
| O=C(O)c1cccc2c1C(=O)c1ccccc1C2=O | > 30 µM (inactive) |
| COc1ccc2cc(C(N)=O)c(=Nc3ccccc3)oc2c1 | > 30 µM (inactive) |
| Cc1ccc2c(c1)COc1c3ccc(C(=O)N4CCOCC4)cc3nn1-2 | > 30 µM (inactive) |
| CCOC(=O)c1ccc(NC(=S)NCCc2ccccc2)cc1 | > 30 µM (inactive) |
| O=C(Cn1c(NCCO)nc2ccccc21)c1ccc([N+](=O)[O-])cc1 | > 30 µM (inactive) |

| Structure (SMILES) | AC50 |
| --- | --- |
| Nc1cc(C(=O)O)c(N)c2c1C(=O)c1ccccc1C2=O | 7.46 µM |
| CC(C)Cn1nc(NC(=O)C2CCCO2)c2cc3ccccc3nc21 (configuration not stated) | > 30 µM (inactive) |
| COc1ccccc1N1C(=O)C2C(c3ccccc3F)NN(C(=O)c3ccc(C)cc3)C2C1=O (configuration not stated) | > 30 µM (inactive) |
| CCCCc1ccc(NC(=O)N[C@@H](CC(C)C)C(=O)O)cc1 | > 10 µM (inactive) |
| c1ccc(-c2noc(-c3ccc4c(c3)OCO4)n2)cc1 | > 30 µM (inactive) |
| CCN(CC)C(=O)c1oc2ccc(S(=O)(=O)N3CCCCCC3)cc2c1C | > 30 µM (inactive) |
| CCCCc1[nH]c(=O)c(C#N)c2c1CCCC2 | > 30 µM (inactive) |
| Fc1ccc(Nc2ccnc(Nc3ccc(F)cc3)n2)cc1 | > 30 µM (inactive) |
| Cc1sc2ncnc(N3CCC(C(=O)Nc4ccc(S(N)(=O)=O)cc4)CC3)c2c1C | 28.2 µM |
| COc1cc(/C=C2/S/C(=N/S(=O)(=O)Cc3ccccc3)NC2=O)c([N+](=O)[O-])cc1OC | > 30 µM (inactive) |
| COC(=O)c1cnn(C(=O)c2cc(OC)ccc2Br)c1N | > 30 µM (inactive) |
| Cc1cc(NS(=O)(=O)c2ccc(Nc3nc(-c4ccc(O)cc4)cs3)cc2)no1 | 15.3 µM |
| CC(=O)Nc1ccc(NC(=O)c2cc(-n3cnnc3)ccc2Cl)cc1 | > 30 µM (inactive) |
| Cc1sc2ncnc(NCc3cccs3)c2c1C | > 30 µM (inactive) |
| CCOC(=O)c1ccc(N2C=C(C(=O)OC)C(c3ccc(OC)c(O)c3)C(C(=O)OC)=C2)cc1 | > 30 µM (inactive) |
| CCN(CC)c1ccc(C2C(C(=O)OC(C)C)C(=O)CC(C)(O)C2C(=O)OC(C)C)cc1 (configuration not stated) | > 30 µM (inactive) |
| NC(=O)c1ccc(NCCCN2CCOCC2)c([N+](=O)[O-])c1 | > 30 µM (inactive) |
| O=C(O)CN1C(=O)C2C3CC(C2C1=O)C1C(c2ccccc2)c2sc(=O)[nH]c2SC31 (configuration not stated) | > 30 µM (inactive) |
| CCN=C1S/C(=C/c2ccc(-c3ccc(Cl)cc3C(=O)O)o2)C(=O)N1CC | 4.3 µM |
| CC(Oc1ccc(Br)cc1)C(=O)N1CCC(C(N)=O)CC1 (configuration not stated) | > 30 µM (inactive) |
| CC1CCCCC1NC(=O)C(=O)NCC1CCCO1 (configuration not stated) | > 30 µM (inactive) |
| O=[N+]([O-])c1ccc(NC2CCCC2)cc1 | > 30 µM (inactive) |
| CCCCOC(=O)c1ccc(N/C(=N\S(=O)(=O)c2ccccc2)c2ccccc2)cc1 | > 30 µM (inactive) |
| CCCCC(=O)Nc1sc2c(c1C(N)=O)CCC2 | > 30 µM (inactive) |
| c1ccc(CN2CCN(CCCNc3ccc4nnc(-c5ccccc5)n4n3)CC2)cc1 | > 30 µM (inactive) |
| CC(=O)Nc1ccc(Nc2ncnc(N)c2[N+](=O)[O-])cc1 | > 30 µM (inactive) |

| Structure (SMILES) | AC50 |
| --- | --- |
| COc1ccc(OC)c(C2CC(=O)N3CN(c4ccccc4)CSC3=C2C#N)c1 (configuration not stated) | > 30 µM (inactive) |
| CCC(=O)NC(=S)Nc1cccc(C(C)=O)c1 | > 30 µM (inactive) |
| CC(/C=N/NC(=O)CSc1nc2ccccc2n1C)=C\c1ccco1 | > 30 µM (inactive) |
| O=C1NC(=S)N/C1=C\c1ccc(N2CCOCC2)cc1 | > 30 µM (inactive) |
| Cc1nnc(N/N=C/c2ccc(-c3ccc(Br)cc3)o2)n1N | 15.4 µM |
| COc1cc(/C=C2\S/C(=N/S(=O)(=O)Cc3ccccc3)NC2=O)c([N+](=O)[O-])cc1OC | > 30 µM (inactive) |
| O=C(CSc1nnc(SCc2ccc(Cl)cc2)s1)N/N=C/c1ccccc1C(=O)O | > 30 µM (inactive) |
| Cc1ccc(OCC(=O)N2CCN(c3nnc(-c4ccccc4)c4ccccc34)CC2)cc1 | > 30 µM (inactive) |
| Cc1ccc(N=C2NC(=O)/C(=C\c3ccc(C)s3)S2)cc1 | > 30 µM (inactive) |
| COc1cc(CN2CCN(Cc3ccc(C)cc3)CC2)c([N+](=O)[O-])cc1OC | > 30 µM (inactive) |
| Cc1cc(N2CCN(c3ccccc3)CC2)n2cc(-c3ccccc3)nc2n1 | > 30 µM (inactive) |
| O=C(COC(=O)CCc1ccc(S(=O)(=O)N2CCOCC2)cc1)Nc1ccc(Cl)cn1 | 28.4 µM |
| COC(=O)[C@@H](NC(=O)NCc1ccccc1Cl)C(C)C | > 30 µM (inactive) |
| Nc1c(O)ccc2c1C(=O)c1ccccc1C2=O | 18.7 µM |
| O=C(O)c1cn(-c2ccccc2)nc1-c1cccnc1 | > 30 µM (inactive) |
| CC1CCCC(C)N1C(=O)COC(=O)c1c[nH]c2ccccc12 (configuration not stated) | > 30 µM (inactive) |
| Cc1cccc2cc(C#N)c(NCCNC(=S)NCCCN3CCOCC3)nc12 | > 30 µM (inactive) |
| O=c1[nH]ncc(N/N=C\c2ccncc2)c1Cl | 25.4 µM |
| CCOC(=O)c1[nH]c2c(c1-c1ccccc1)C(=O)CC(c1ccc(Cl)cc1)C2 (configuration not stated) | > 30 µM (inactive) |
| Nc1ncnc2nc(SCc3ccc(Cl)cc3Cl)[nH]c12 | > 30 µM (inactive) |
| c1ccc2[nH]c(C3CC3)nc2c1 | > 30 µM (inactive) |
| COc1ccc(Br)cc1C(=O)Nc1cccc(NC(=O)c2ccco2)c1 | > 30 µM (inactive) |
| COc1ccc(-c2cnc(N)nc2-c2ccc(OC)cc2O)cc1 | 9.75 µM |
| CC1(C)Cc2nc3oc4c(=S)nc[nH]c4c3cc2CO1 | 17 µM |
| COc1ccc(Nc2sc(C(=O)c3ccc(Cl)cc3)c(N)c2C(=O)Nc2ccccc2OC)cc1 | > 30 µM (inactive) |
| Cn1c(SCc2cnc(-c3ccccc3)s2)nnc1C1COc2ccccc2O1 (configuration not stated) | > 30 µM (inactive) |

| Structure (SMILES) | AC50 |
| --- | --- |
| O=C(CCSc1nc(-c2ccc3c(c2)OCO3)cc(C(F)(F)F)n1)NCc1ccco1 | > 30 µM (inactive) |
| CCOC(=O)CC1COc2ccccc2N1C(=O)c1ccc(C)cc1 (configuration not stated) | > 30 µM (inactive) |
| CC1CCN(Cc2c(C(=O)N/N=C/c3cccc(Cl)c3)nnn2-c2nonc2N)CC1 | 2.73 µM |
| CCn1c2ccccc2c2nnc(SCC(N)=O)nc21 | 15.4 µM |
| COc1cccc(NC(=O)Nc2cc(Cl)ccc2C)c1 | > 30 µM (inactive) |
| O=C(CSc1ccccn1)Nc1ccccc1F | > 30 µM (inactive) |
| Cc1cccc(/C(N)=N/OC(=O)c2ccc3c(c2)OCO3)c1 | 24.7 µM |
| COc1ccc(C(CNc2ccc(S(=O)(=O)N3CCCC3)cc2[N+](=O)[O-])N2CCCC2)cc1 (configuration not stated) | > 30 µM (inactive) |
| CN(C)C(=O)Oc1ccc2c(c1)O/C(=C\c1cccc([N+](=O)[O-])c1)C2=O | > 30 µM (inactive) |
| COc1ccc(-c2ncncc2-c2ccc(OC)c(OC)c2)c(O)c1 | 10.3 µM |
| Cc1cc2nc(-c3cccnc3SCC(=O)NCc3ccco3)[nH]c2cc1C | > 30 µM (inactive) |
| N#Cc1c(-c2ccccc2)nc(SCc2ccc(Cl)cc2)[nH]c1=O | > 30 µM (inactive) |
| N#Cc1c(-c2ccncc2)c2c([nH]c1=O)-c1ccccc1OC2 | > 30 µM (inactive) |
| Cc1nn2cc(-c3ccccc3)nc2[nH]c1=O | > 30 µM (inactive) |
| C=CCN1C(=O)/C(=C\c2ccco2)C(C(=O)OC)=C1C | > 30 µM (inactive) |
| Nc1ncnc2c1ncn2[C@@H]1O[C@H](COS(=O)(=O)O)[C@@H](O)[C@H]1O | > 30 µM (inactive) |
| Cc1nc(NC(=O)c2ccccc2)sc1Cc1ccc2c(c1)OCO2 | > 30 µM (inactive) |
| COc1ccc(S(=O)(=O)Nc2c(C(=O)O)[nH]c3ccc(OC)cc23)cc1 | 30.7 µM |
| COc1cc(/C=N/NC(=O)CSCc2ccc([N+](=O)[O-])cc2)cc(OC)c1OC | > 30 µM (inactive) |
| C[C@H]1CCCC(=O)CCCCCc2cc(O)cc(O)c2C(=O)O1 | 28.3 µM |
| Clc1nccnc1N/N=C/c1ccc(Br)cc1 | > 30 µM (inactive) |
| O=C(NC1CCCC1)c1ccc(Cn2c(=O)[nH]c3ccsc3c2=O)cc1 | > 30 µM (inactive) |
| CC1(C)CC(=O)C=C(c2cccc(O)c2)C1 | > 30 µM (inactive) |
| CCn1nc(-c2ccccc2)nc2c(=O)n(C)c(=O)nc1-2 | 27.3 µM |
